US20230057984A1, “NORMALIZATION OF CULTURE OF CORNEAL ENDOTHELIAL CELLS” (KYOTO PREFECTURAL PUBLIC UNIVERSITY CORPORATION, priority 2011, published 2023)
Like-named read-outs stand apart in the source and are kept apart here.

Legend:
[1] = tested on: Human corneal endothelial cells; settings: HCEC after subculturing
Method: Next, subculturing was performed with trypsin. Comparison was made between cells cultured in Opti-MEM I Reduced-Serum Medium, Liquid (INVITROGEN catalog number: 31985-070)+8% fetal bovine serum (FBS) (BIOWEST, catalog number: S1820-500)+[…] CaCl2.2H2O (SIGMA catalog number: C7902-500G)+0.08% chondroitin sulfuric acid (SIGMA catalog number: C9819-5G)+20 μg ascorbic acid (SIGMA catalog number: A4544-25G)+50 μg/ml gentamicin (INVITROGEN catalog number: 15710-064)+5 ng/ml EGF (INVITROGEN catalog number: PHG0311) as a normal culture medium, and cells cultured in the above-mentioned culture medium with Smad3 inhibitor (0.3 mM and 3 mM) added thereto.

[2] = tested on: Human corneal endothelial cells; test: Culture of human corneal endothelial cells with SB203580 in conjunction with SB431542 (Example 7); format: cell-based; settings: HCEC
Method: Corneal endothelial cells were mechanically exfoliated together with basement membranes from research corneas purchased from the Seattle bank, followed by exfoliating from the basement membranes using collagenase for collection, and then primary culturing. […] In addition, culturing was performed using a base culture medium with SB431542 (1 μmol/l, TOCRIS, catalog number:1614) added thereto, with SB203580 (1 μmol/l, CALBIOCHEM, catalog number: 559389) added thereto, and with SB431542 (1 μmol/l) and SB203580 (1 μmol/l) added thereto.

[3] = tested on: corneal endothelial failure model (bullous keratopathy model); test: Transplantation of cultured human corneal endothelial cells to cynomolgus monkey bullous keratopathy model (Example 9); format: in vivo
Excerpt: Under general anesthesia, the peripheral portion of a cornea of a cynomolgus monkey is cut by 1.5 mm, and a silicon surgical instrument is inserted into an anterior chamber to mechanically currete a corneal endothelial cell, thus creating a bullous keratopathy model. Next, of human corneal endothelial cells cultured by the method according to the present invention ex vivo, 2.0×10^5 were suspended in a basal culture medium, and a ROCK inhibitor having an adhesion promoting effect, Y-27632, was added thereto such that the final concentration would be 100 μmol/l, followed by introduction into the anterior chamber. As a control, 2.0×10^5 human corneal endothelial cells, suspended in a basal culture medium, were introduced without a ROCK inhibitor. After introduction, the model was maintained with its head down for three hours so that the eyeball would be downwards, thus promoting cellular adhesion to the corneal endothelium surface. Therapeutic effects of bullous keratopathy by transplanting a cultured corneal endothelium sheet was evaluated by corneal transparency evaluation through a slit-lamp microscope, and corneal thickness measurement using a ultrasonic tachymeter (FIG. 14). […] Then, similar to Example 2, immunostaining was performed directed to phalloidin, Na^+/K^+-ATPase and ZO-1, followed by taking images using a fluorescence microscope (FIG. 15). […]

[4] = tested on: monkey corneal endothelial cells; test: Addition of TGF-β to monkey corneal endothelial cells: Western blot of Na+/K+-ATPase and ZO-1 (Example 4); format: cell-based, cynomolgus monkey; settings: monkey CEC, TGF-β 0, 1, 3, 10, 30 ng/ml, concentration dependent
Smad2 = test: Addition of TGF-β to monkey corneal endothelial cells: Western blot of pSmad2/Smad2 (Example 4); format: cell-based, cynomolgus monkey; settings: monkey CEC, TGF-β 0, 1, 10 ng/ml
[5] = tested on: monkey corneal endothelial cells; test: Addition of TGF-β to monkey corneal endothelial cells: cell form and immunostaining (Example 4); format: cell-based, cynomolgus monkey
[6] = tested on: Human corneal endothelial cells; test: Culture of human corneal endothelial cells with BMP-7: phase-contrast and phalloidin staining (Example 6); format: cell-based
Method: (§1) Next, by using three different concentrations, BMP7 was able to suppress the change in a HCEC to a fibroblast phenotype and to maintain the function thereof. […] Thus, this molecule is used to antagonize an EMT process [Zeisberg M, et al. (2003) Nat Med 9: 964-968], [Simic P, et al. (2007) EMBO Rep 8: 327-331], [Buijs J T, et al. (2007) Am J Pathol 171: 1047-1057], [Zeisberg M, et al. (2007) J Biol Chem 282: 23337-23347]. […] Fibroblast-like HCEC was treated with BMP-7 in the concentration ranging from 10 to 1,000 ng/ml.

[7] = tested on: Human corneal endothelial cells; test: Na+/K+-ATPase and ZO-1 staining of human corneal endothelial cells treated with BMP-7 (FIG. 10A C-F); format: cell-based
Method: For tissue staining examination, cultured MCECs or HCECs were put into Lab-Tek™ Chamber Slides™ (NUNC A/S, Roskilde, Denmark), fixed with 4% formaldehyde for 10 minutes at a room temperature (RT), and incubated for 30 minutes with 1% bovine serum albumin (BSA). Specifically, cultured MCECs or HCECs on the Lab-Tek™ Chamber Slides™ (NUNCA/S, Roskilde, Denmark) were fixed at a room temperature for 10 minutes in 4% formaldehyde, followed by incubation for 30 minutes together with 1% bovine serum albumin (BSA). In order to examine the phenotype of CEC, immunohistochemical analysis was directed to a protein associated with tight junction, ZO-1 (Zymed Laboratories, Inc., South San Francisco, Calif.), a protein associated with the pumping function, Na^+/K^+-ATPase (Upstate Biotec, Inc., Lake Placid, N.Y.), fibronectin (BD, Franklin Lakes, N.J.), and actine. As markers associated with the function of CEC, ZO-1 and Na^+/K^+-ATPase were used; fibronectin and type 1 collagen were used to evaluate the change in a fibroblastic manner; and staining of actine was used to evaluate the phenotype of the cells. Staining of ZO-1, Na^+/K^+-ATPase, type 1 collagen and fibronectin was each performed using 1:200 dilution of ZO-1 polyclonal antibody, Na^+/K^+-ATPase monoclonal antibody, and fibronectin monoclonal antibody. As to secondary antibody, 1:2000 dilution of Alexa Fluor (registered trademark) 488 label or Alexa Fluor (registered trademark) 594 label goat antimouse IgG (Life Technologies) was used. Staining of actine was performed using 1:400 dilution of Alexa Fluor (registered trademark) 488 label phalloidin (Life Technologies). Next, the nucleus of each cell was stained with DAPI (Vector Laboratories, Inc., Burlingame, Calif.) or PI (Sigma-Aldrich). Next, the slides were observed through a fluorescence microscope (TCS SP2 AOBS; Leica Microsystems, Welzlar, Germany).
as §1

[8] = fibroblast-like HCEC, BMP-7 10 to 1,000 ng/ml
[9] = HCEC, three concentrations of BMP-7 vs additive-free control

COc1cc2c(cc1OC)CN(C(=O)/C=C/c1c(-c3ccccc3)n(C)c3ncccc13)CC2 [Smad3 inhibitor, 6,7-dimethoxy-2-((2E)-3-(1-methyl-2-phenyl-1H-pyrrolo[2,3-b]pyridine-3-yl-prop-2-enoyl))-1,2,3,4-tetrahydroiso quinolone]
cell form (phase-contrast microscope) ([1]; Smad3 inhibitor 0.3 mM vs normal culture medium): a layer of polygonal cells with high density were maintained | cell form (phase-contrast microscope) ([1]; Smad3 inhibitor 3 mM vs normal culture medium): a layer of polygonal cells with high density were maintained

C[S+]([O-])c1ccc(-c2nc(-c3ccc(F)cc3)c(-c3ccncc3)[nH]2)cc1 (centres unmarked) [SB203580, 4-[4-(4-fluorophenyl)-2-(4-methylsulfinylphenyl)-1H-imidazole-5-yl]pyridine]
corneal endothelium density ([2]; SB203580 1 μmol/l added to SB431542 1 μmol/l): increased | culture normalization ([2]; SB203580 1 μmol/l in conjunction with SB431542 1 μmol/l, repeated subculturing): culture normalization was enhanced

C[C@@H](N)[C@H]1CC[C@H](C(=O)Nc2ccncc2)CC1.Cl.Cl.O (relative stereo) [Y-27632, (R)-(+)-trans-(4-pyridyl)-4-(1-aminoethyl)-cyclohexanecarboxamide 2 hydrochloride 1 hydrate]
therapeutic result: corneal transparency (slit-lamp microscope) and corneal thickness ([3]; 2.0×10^5 cultured human corneal endothelial cells into anterior chamber, with or without Y-27632 100 μmol/l): further improved | therapeutic result: immunostaining of phalloidin, Na+/K+-ATPase and ZO-1 of extracted corneas ([3]; 2.5 months after introduction, cells alone or cells + ROCK inhibitor): further improved

TGF-β: transforming growth factor-β, R&D SYSTEMS catalog number 240-B, added to induce transformation
expression of Na+/K+-ATPase and ZO-1 at the protein level (Western blot) [4]: significantly decreased | phosphorylation of Smad2 (Western blot) (Smad2): greatly increased in the concentration dependent form | cell form of normal phenotype after exposure to exogenous TGF-β ([5]; monkey CEC cultured to sub-confluency, TGF-β1 0, 1, 10 ng/mL): transformed into a fibroblast-like cell | staining patterns of Na+/K+-ATPase and ZO-1 in plasma membranes ([5]; monkey CEC normal phenotype exposed to TGF-β): completely lost

B1: BMP-7: bone morphogenic protein 7, anti-EMT factor, R&D SYSTEMS catalog number 354-BP (protein, UniProt P18075 293-431, looked up)
Bone morphogenetic protein 7: STGSKQRSQNRSKTPKNQEALRMANVAENSSSDQRQACKKHELYVSFRDLGWQDWIIAPEGYAAYYCEGECAFPLNSYMNATNHAIVQTLVHFINPETVPKPCCAPTQLNAISVLYFDDSSNVILKKYRNMVVRACGCH
cell form (phalloidin staining and phase-contrast microscope) ([6]; HCEC subcultured in conditioned culture medium with BMP-7 100 ng/ml, control transformed, multi-layered): the form of a layer of polygonal cells was maintained | cell form and actine cytoskeleton distribution (phalloidin staining) [6, 8]: allowed for a normal hexagonal cell form, and allowed for cytoskeleton distribution on the cell surface of actine | elongated cell form of fibroblast phenotype (phase-contrast) ([6]; fibroblast-like HCEC, BMP-7 10 to 1,000 ng/ml, concentration-dependent manner): converted into a polygonal cell form | harmful effects with regard to the forms or functions (HCEC): not seen any clear, harmful effects | maintaining CEC in polygonal form and contact inhibition phenotype with positive expression of function-associated marker ([7]; HCEC, BMP-7 10 ng/ml): tendency was seen | maintaining CEC in polygonal form and contact inhibition phenotype with positive expression of function-associated marker ([7]; HCEC, BMP-7 100 ng/ml): tendency increased | maintaining CEC in polygonal form and contact inhibition phenotype with positive expression of function-associated marker ([7]; HCEC, BMP-7 1,000 ng/ml): tendency was more significant | percentage of Na+/K+-ATPase positive cell [7, 9]: significantly increased | percentage of ZO-1 positive cell [7, 9]: significantly increased | intracellular localization of Na+/K+-ATPase and ZO-1 [7, 8]: maintained the intracellular localization of Na^+/K^+-ATPase and ZO-1 in a cell membrane
